Marks after values point to notes of the source that are not given here.

Here are results for 3 molecules from patent US6592910B1, “Methods of treating clinical diseases with isoflavones” (Board of Trustees, Southern Illinois University, priority 1999, dated 2003).

Data set [1] has as its system male Sprague-Dawley rats. Kind of data set: Feed and weight measurements in male Sprague-Dawley rats injected for 6 weeks. The class given is in vivo, rat. The conditions noted are these: for Fat Weight: visceral fat. On the procedure: (§1) Forty male Sprague-Dawley rats (5 wk old, n=9-10 rats/treatment, from Harlan Sprague-Dawley, Inc., Indianapolis, Ind.) were injected with either genistein (G), daidzein (D), estradiol (E), or a vehicle control (V). Each animal in group V received a daily 0.1 cc subcutaneous injection, for six weeks, of a 10% ethanol-90% olive oil solution; the other treatments received their respective compound as a daily 0.1 cc subcutaneous injection, for six weeks, e.g., 0.1 μg of compound/g of body weight, in a 10% ethanol-90% olive oil solution.
Animal weight and feed intake were measured weekly during the six week study, and the subsequent feed-efficiency ratio [FER (g of weight change/g of feed intake)] was determined. Following sacrifice, the abdominal fat pads, liver, and reproductive organs were removed and weighed for comparison.
(§2) These studies used a randomized design. All data were analyzed by one-way analysis of variance (ANOVA) and post-hoc comparisons were made with Tukey pairwise comparisons test. Significance was confirmed at P≦0.05 (SYSTAT 7.0, SPSS INC., 1997), and all values are reported as means±standard error of the mean.

For data set [2], the system named is male Sprague-Dawley rats. Nature of the data set: Liver weight, cholesterol and triglyceride in male Sprague-Dawley rats injected for 6 weeks. The class given is in vivo, rat. The conditions noted are these: for Liver total triglycerides: as triolein; for Liver total triglycerides / Liver cholesteryl esters / Liver total cholesterol / Liver unesterified cholesterol / Liver weight: daily s.c. injection, 6 weeks; for liver weight as a % of body weight, compared with V: rat, in vivo. The method, then: (§3) Forty male Sprague-Dawley rats (5 wk old, n=9-10 rats/treatment, from Harlan Sprague-Dawley, Inc., Indianapolis, Ind.) were injected with either genistein (G), daidzein (D), estradiol (E), or a vehicle control (V). Each animal in group V received a daily 0.1 cc subcutaneous injection, for six weeks, of a 10% ethanol-90% olive oil solution; the other treatments received their respective compound as a daily 0.1 cc subcutaneous injection, for six weeks, e.g., 0.1 μg of compound/g of body weight, in a 10% ethanol-90% olive oil solution. Animal weight and feed intake were measured weekly during the six week study, and the subsequent feed-efficiency ratio [FER (g of weight change/g of feed intake)] was determined. Following sacrifice, the abdominal fat pads, liver, and reproductive organs were removed and weighed for comparison. Collected blood was heparinized and centrifuged, plasma aliquots were then used for glucose and total cholesterol determinations, using standard glucose oxidase (Fisher Scientific, St. Louis, Mo.) and cholesterol kits (Fisher Scientific, St. Louis, Mo.). Liver cholesterol and triglyceride analysis. Analytical procedures for determination of liver total cholesterol, unesterified cholesterol, cholesteryl ester, and triglyceride concentrations were as described in Example 1. These studies used a randomized design. All data were analyzed by one-way analysis of variance (ANOVA) and post-hoc comparisons were made with Tukey pairwise comparisons test. Significance was confirmed at P≦0.05 (SYSTAT 7.0, SPSS INC., 1997), and all values are reported as means±standard error of the mean.

In data set [3] the test system is Cu,Zn superoxide Dimutase (SOD). Kind of data set: Liver Cu,Zn superoxide dimutase activity in injected rats. The note with it: daily s.c. injection, 6 weeks; P<0.05. In kind it is in vivo, rat. On the procedure: as §1
The activity or level of antioxidant enzymes (AOE), catalase (CAT) and Cu,Zn superoxide Dimutase (SOD) in rat liver, were measured to determine the effect of administration of G, D, and E injections on free radical defense systems. A 50 mg piece of whole frozen liver was removed and sonicated in TBS plus 1% Triton X-100. The samples were then centrifuged at 13,000×g for 25 min at 4° C., and the supernatant was collected. Total protein concentration was assayed for subsequent determinations of hepatic AOE activity or absolute level per milligram total protein. SOD activity was determined by spectrophotometry at I=560 nm using xanthine/xanthine oxidase as a superoxide generator and measured against a standard curve of known SOD activities (Sun et al. 1988, 1994). Catalase levels were determined bv Slot blot, which was performed following a representative Western blot that detected no nonspecific binding (Tobin et al. 1979). The bands corresponding to catalase were quantified by densitometry.
as §2

Data set [4] has as its system male Sprague-Dawley rats. Nature of the data set: Plasma glucose and plasma total cholesterol in male Sprague-Dawley rats injected for 6 weeks. In kind it is in vivo, rat. The conditions noted are these: 6 weeks injection. On the procedure:
as §3, with “solution.” for “solution. Animal weight and feed intake were measured weekly during the six week study, and the subsequent feed-efficiency ratio [FER (g of weight change/g of feed intake)] was determined. Following sacrifice, the abdominal fat pads, liver, and reproductive organs were removed and weighed for comparison.”

Data set [5] deals with stenotic arteries of female macaques. The note with it: intravenous infusion; cited from earlier work.

Regarding `O=c1c(-c2ccc(O)cc2)coc2cc(O)ccc12` [D, daidzein], in the data set with male Sprague-Dawley rats [1] (daily s.c. injection, 6 weeks), the “Body Weight” value was 367.89 g and the “Fat Weight” value was found to be 11.66 g. Further, in the data set on male Sprague-Dawley rats [2] (P<0.05), the “Liver triglyceride concentrations compared to the E treatment” value is recorded as “significantly (P<0.05) lower” and the “Liver weights vs the V group” value is reported as “considerably (P<0.05) lower”. In the data set on male Sprague-Dawley rats [2], the Liver total triglycerides is on record as 17.980 μmol/g liver, the Liver cholesteryl esters was 3.114 μmol/g liver, the Liver total cholesterol was determined as 5.678 μmol/g liver and the Liver unesterified cholesterol came out at 2.563 μmol/g liver. Moreover, in the data set on male Sprague-Dawley rats [2], the Liver weight is given as 12.857^a g and the “liver weight as a % of body weight, compared with V” value is recorded as “reduction in relative liver mass”. In addition, the “elevation of liver SOD activity over vehicle controls” value (“elevation … over vehicle controls” for short) in data set [3] was “approximately 33%”.
`C[C@]12CC[C@@H]3c4ccc(O)cc4CC[C@H]3[C@@H]1CC[C@@H]2O` [E, estradiol, reference compound]: in the data set on male Sprague-Dawley rats [1] (daily s.c. injection, 6 weeks), the “Body Weight” value was 242.50^a,b,c g and the “Fat Weight” value is 6.71^a,b,c g. Besides, the “Body, testis, and prostate weight compared to D, G, and V treated animals” value in the data set with male Sprague-Dawley rats [1] (rat, in vivo) was “markedly (P<0.05) lower”. Moreover, in the data set on male Sprague-Dawley rats [2], the Liver total triglycerides is on record as 32.186^c μmol/g liver, the Liver cholesteryl esters is 4.104^a,b μmol/g liver, the Liver total cholesterol is on record as 6.722^a,b,c μmol/g liver and the Liver unesterified cholesterol is reported as 2.618 μmol/g liver. The Liver weight with male Sprague-Dawley rats [2] is recorded as 10.487^a,b,c g. For the same molecule, the “elevation … over vehicle controls” value in data set [3] is “approximately 33%”.
As to `O=c1c(-c2ccc(O)cc2)coc2cc(O)cc(O)c12` [G, genistein], in the data set with male Sprague-Dawley rats [4], the “plasma cholesterol levels vs the V group” value is “non-significant trend (P<0.5) toward lower”. For the same molecule, in the data set with male Sprague-Dawley rats [1] (daily s.c. injection, 6 weeks), the “Body Weight” value is recorded as 363.00 g, the “Prostate Weight” value is on record as “.732 g”, the “Testis Weight” value was 2.90 g and the “Fat Weight” value amounted to 11.19 g. Further, the “Liver weights vs the V group” value in the data set with male Sprague-Dawley rats [2] (P<0.05) is given as “considerably (P<0.05) lower”. For the same molecule, in the data set on male Sprague-Dawley rats [2], the Liver total triglycerides was determined as 29.528 μmol/g liver, the Liver cholesteryl esters came to 2.589 μmol/g liver, the Liver total cholesterol is given as 5.189 μmol/g liver and the Liver unesterified cholesterol is listed as 2.600 μmol/g liver. In the data set on male Sprague-Dawley rats [2], the Liver weight was 12.970^a g and the “liver weight as a % of body weight, compared with V” value was “reduction in relative liver mass”. Besides, in data set [3], the “elevation … over vehicle controls” value was determined as 15%. Also, the “vasoconstriction in stenotic arteries” value in data set [5] is on record as “rapid inhibition”.
